Data reported in patent US8629157B2, “Pyrrolidine compounds which modulate the CB2 receptor” (Boehringer Ingelheim International GmbH, priority 2009, dated 2014).
Where two headings read alike, the source gives them in different places.

Molecular target: human CB2R (Homo sapiens, UniProt P34972)
Assay: CB2R mediated modulation of cAMP synthesis
Assay type: cell-based
Protocol: B. CB2R Mediated Modulation of cAMP Synthesis:
Compounds of the invention were evaluated for their CB2 agonist or inverse agonistic activity in accordance with the following experimental method.
CHO cells expressing human CB2R (Euroscreen) were plated at a density of 5000 cells per well in 384 well plates and incubated overnight at 37° C. After removing the media, the cells were treated with test compounds diluted in stimulation buffer containing 1 mM IBMX, 0.25% BSA and 10 uM Forskolin. The assay was incubated for 30 minutes at 37° C. Cells were lysed and the cAMP concentration was measured using DiscoverX-XS cAMP kit, following the manufacturer's protocol. In this setting, agonists will decrease forskolin induced production of cAMP while inverse agonists will further increase forskolin induced production of cAMP. EC50 of agonists were calculated as follows. The maximal amount of cAMP produced by forskolin compared to the level of cAMP inhibited by 1 uM CP55940 is defined as 100%. […] Data was analyzed using a four-parameter logistic model. (Model 205 of XLfit 4.0).

[1] = CHO cells expressing human CB2R, inhibition of forskolin-stimulated cAMP synthesis, mean, read-out: CB2 CAMP @ EC50 nM (mean)

Chain of human CB2R (P34972 whole entry): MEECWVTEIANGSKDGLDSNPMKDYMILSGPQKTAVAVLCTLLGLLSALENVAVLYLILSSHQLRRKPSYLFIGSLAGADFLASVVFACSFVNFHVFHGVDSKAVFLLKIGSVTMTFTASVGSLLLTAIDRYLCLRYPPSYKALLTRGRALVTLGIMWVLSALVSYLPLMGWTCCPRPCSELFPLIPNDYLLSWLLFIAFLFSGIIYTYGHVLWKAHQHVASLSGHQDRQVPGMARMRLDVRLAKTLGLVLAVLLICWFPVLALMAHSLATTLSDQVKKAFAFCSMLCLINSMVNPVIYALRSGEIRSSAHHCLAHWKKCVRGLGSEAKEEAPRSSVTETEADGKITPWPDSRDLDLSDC

| SMILES | EC50 [nM] | EC50 [1] [nM] |
| --- | --- | --- |
| CCc1sc(NC(=O)[C@@H]2C[C@@H](O)CN2C2CCOCC2)nc1-c1ccccc1 [(2S,4R)-4-Hydroxy-1-(tetrahydro-pyran-4-yl)-pyrrolidine-2-carboxylic acid (5-ethyl-4-phenyl-thiazol-2-yl)-amide] | 58.7 | – |
| CC(C)(C)c1cc(NC(=O)[C@@H]2C[C@@H](O)CN2C2CCOCC2)no1 [(2S,4R)-4-Hydroxy-1-(tetrahydro-pyran-4-yl)-pyrrolidine-2-carboxylic acid (5-tert-butyl-isoxazol-3-yl)-amide] | 363 | – |
| CC1CC(NC(=O)[C@@H]2C[C@@H](O)CN2CC2CCOCC2)CC(C)(C)C1 (stereo partly drawn) [(2S,4R)-4-Hydroxy-1-(tetrahydro-pyran-4-ylmethyl)-pyrrolidine-2-carboxylic acid (3,3,5-trimethyl-cyclohexyl)-amide] | 219 | – |
| O=C(Nc1nc(-c2ccccc2)ns1)[C@@H]1C[C@@H](O)CN1CC1CCOCC1 [(2S,4R)-4-Hydroxy-1-(tetrahydro-pyran-4-ylmethyl)-pyrrolidine-2-carboxylic acid (3-phenyl-1,2,4-thiadiazol-5-yl)-amide] | 303 | – |
| CCCc1cc(NC(=O)[C@@H]2C[C@@H](O)CN2CC2CCOCC2)on1 [(2S,4R)-4-Hydroxy-1-(tetrahydro-pyran-4-ylmethyl)-pyrrolidine-2-carboxylic acid (3-propyl-isoxazol-5-yl)-amide] | – | 248 |
| O=C(Nc1nc(C2CCCCC2)cs1)[C@@H]1C[C@@H](O)CN1CC1CCOCC1 [(2S,4R)-4-Hydroxy-1-(tetrahydro-pyran-4-ylmethyl)-pyrrolidine-2-carboxylic acid (4-cyclohexyl-thiazol-2-yl)-amide] | 150 | – |
| CCc1sc(NC(=O)[C@@H]2C[C@@H](O)CN2CC2CCOCC2)nc1-c1ccccc1 [(2S,4R)-4-Hydroxy-1-(tetrahydro-pyran-4-ylmethyl)-pyrrolidine-2-carboxylic acid (5-ethyl-4-phenyl-thiazol-2-yl)-amide] | 7.93 | – |
| CC(C)(C)c1nnc(NC(=O)[C@@H]2C[C@@H](O)CN2CC2CCOCC2)s1 [(2S,4R)-4-Hydroxy-1-(tetrahydro-pyran-4-ylmethyl)-pyrrolidine-2-carboxylic acid (5-tert-butyl-1,3,4-thiadiazol-2-yl)-amide] | 69.8 | – |
| CC(C)(C)c1cc(NC(=O)[C@@H]2C[C@@H](O)CN2CC2CCOCC2)no1 [(2S,4R)-4-Hydroxy-1-(tetrahydro-pyran-4-ylmethyl)-pyrrolidine-2-carboxylic acid (5-tert-butyl-isoxazol-3-yl)-amide] | 3.89 | – |
| O=C(Nc1nc(-c2ccc(Cl)cc2)cs1)[C@@H]1C[C@@H](O)CN1CC1CCOCC1 [(2S,4R)-4-Hydroxy-1-(tetrahydro-pyran-4-ylmethyl)-pyrrolidine-2-carboxylic acid [4-(4-chloro-phenyl)-thiazol-2-yl]-amide] | 71.2 | – |
| CC(C)(C)c1cc(NC(=O)[C@@H]2C[C@H](O)CN2c2ncc(C(F)(F)F)cc2Cl)no1 [(2S,4S)-1-(3-Chloro-5-trifluoromethyl-pyridin-2-yl)-4-hydroxy-pyrrolidine-2-carboxylic acid (5-tert-butyl-isoxazol-3-yl)-amide] | 1.35 | – |
| O=C(Nc1nc(-c2ccccc2)ns1)[C@@H]1C[C@H](O)CN1c1ccc(C(F)(F)F)cn1 [(2S,4S)-4-Hydroxy-1-(5-trifluoromethyl-pyridin-2-yl)-pyrrolidine-2-carboxylic acid (3-phenyl-1,2,4-thiadiazol-5-yl)-amide] | 18.4 | – |
| CC(C)(C)c1cc(NC(=O)[C@@H]2C[C@H](O)CN2c2ccc(C(F)(F)F)cn2)no1 [(2S,4S)-4-Hydroxy-1-(5-trifluoromethyl-pyridin-2-yl)-pyrrolidine-2-carboxylic acid (5-tert-butyl-isoxazol-3-yl)-amide] | 27.9 | – |
| CC(C)(C)c1cc(NC(=O)[C@@H]2C[C@H](O)CN2C2CCOCC2)on1 [(2S,4S)-4-Hydroxy-1-(tetrahydro-pyran-4-yl)-pyrrolidine-2-carboxylic acid (3-tert-butyl-isoxazol-5-yl)-amide] | 59 | – |
| CC(C)(C)c1nc(NC(=O)[C@@H]2C[C@H](O)CN2CC2CCOCC2)sc1C#N [(2S,4S)-4-Hydroxy-1-(tetrahydro-pyran-4-ylmethyl)-pyrrolidine-2-carboxylic acid (4-tert-butyl-5-cyano-thiazol-2-yl)-amide] | 380 | – |
| CC(C)N1C[C@@H](O)C[C@H]1C(=O)Nc1cc(C(C)(C)C)no1 [(2S,4S)-4-Hydroxy-1-isopropyl-pyrrolidine-2-carboxylic acid (3-tert-butyl-isoxazol-5-yl)-amide] | 421 | – |
| O=C(Nc1ccc(C(F)(F)F)cn1)[C@H]1CCCN1c1ccc(C(F)(F)F)cc1 [(R)-1-(4-Trifluoromethyl-phenyl)-pyrrolidine-2-carboxylic acid (5-trifluoromethyl-pyridin-2-yl)-amide] | 70.7 | – |
| CC(C)(C)c1nnc(NC(=O)[C@@H]2CCCN2C(=O)N2CCS(=O)(=O)CC2)s1 [(S)-1-(1,1-Dioxo-1l^6-thiomorpholine-4-carbonyl)-pyrrolidine-2-carboxylic acid (5-tert-butyl-1,3,4-thiadiazol-2-yl)-amide] | 436 | – |

| SMILES | EC50 [nM] | EC50 [1] [nM] |
| --- | --- | --- |
| CC(C)(C)c1cc(NC(=O)[C@@H]2CCC(=O)N2c2cccc(F)c2F)on1 [(S)-1-(2,3-Difluoro-phenyl)-5-oxo-pyrrolidine-2-carboxylic acid (3-tert-butyl-isoxazol-5-yl)-amide] | 261 | – |
| CCC(C)CN1CCC[C@H]1C(=O)Nc1cc(C(C)(C)C)no1 (stereo partly drawn) [(S)-1-(2-Methyl-butyl)-pyrrolidine-2-carboxylic acid (3-tert-butyl-isoxazol-5-yl)-amide] | 0.116 | – |
| CC(C)(C)c1cc(NC(=O)[C@@H]2CCC(=O)N2c2ccc(Cl)c(Cl)c2)on1 [(S)-1-(3,4-Dichloro-phenyl)-5-oxo-pyrrolidine-2-carboxylic acid (3-tert-butyl-isoxazol-5-yl)-amide] | 16.1 | – |
| CC(C)(C)c1cc(NC(=O)[C@@H]2CCC(=O)N2c2ccc(Cl)c(Cl)c2)no1 [(S)-1-(3,4-Dichloro-phenyl)-5-oxo-pyrrolidine-2-carboxylic acid (5-tert-butyl-isoxazol-3-yl)-amide] | 49.7 | – |
| CC(C)(C)c1cc(NC(=O)[C@@H]2CCCN2Cc2ccc(F)c(F)c2)on1 [(S)-1-(3,4-Difluoro-benzyl)-pyrrolidine-2-carboxylic acid (3-tert-butyl-isoxazol-5-yl)-amide] | 0.208 | – |
| CC(C)(C)c1cc(NC(=O)[C@@H]2CCC(=O)N2c2ccc(F)c(F)c2)on1 [(S)-1-(3,4-Difluoro-phenyl)-5-oxo-pyrrolidine-2-carboxylic acid (3-tert-butyl-isoxazol-5-yl)-amide] | 16 | – |
| CC(C)(C)c1cc(NC(=O)[C@@H]2CCC(=O)N2c2ccc(F)c(F)c2)no1 [(S)-1-(3,4-Difluoro-phenyl)-5-oxo-pyrrolidine-2-carboxylic acid (5-tert-butyl-isoxazol-3-yl)-amide] | 64.2 | – |
| CC(C)(C)c1cc(NC(=O)[C@@H]2CCCN2c2ncc(Cl)cc2Cl)on1 [(S)-1-(3,5-Dichloro-pyridin-2-yl)-pyrrolidine-2-carboxylic acid (3-tert-butyl-isoxazol-5-yl)-amide] | 0.135 | – |
| CC(C)(C)c1cc(NC(=O)[C@@H]2CCC(=O)N2c2ccc(F)c(Cl)c2)on1 [(S)-1-(3-Chloro-4-fluoro-phenyl)-5-oxo-pyrrolidine-2-carboxylic acid (3-tert-butyl-isoxazol-5-yl)-amide] | 26.7 | – |
| CC(C)(C)c1cc(NC(=O)[C@@H]2CCC(=O)N2c2ccc(F)c(Cl)c2)no1 [(S)-1-(3-Chloro-4-fluoro-phenyl)-5-oxo-pyrrolidine-2-carboxylic acid (5-tert-butyl-isoxazol-3-yl)-amide] | 59.3 | – |
| CC(C)(C)c1cc(NC(=O)[C@@H]2CC(=O)CN2c2ncc(C(F)(F)F)cc2Cl)no1 [(S)-1-(3-Chloro-5-trifluoromethyl-pyridin-2-yl)-4-oxo-pyrrolidine-2-carboxylic acid (5-tert-butyl-isoxazol-3-yl)-amide] | 40.2 | – |
| CC(C)(C)c1cc(NC(=O)[C@@H]2CCCN2c2ncc(C(F)(F)F)cc2Cl)on1 [(S)-1-(3-Chloro-5-trifluoromethyl-pyridin-2-yl)-pyrrolidine-2-carboxylic acid (3-tert-butyl-isoxazol-5-yl)-amide] | 0.055 | – |
| CC(C)(C)c1csc(NC(=O)[C@@H]2CCCN2c2ncc(C(F)(F)F)cc2Cl)n1 [(S)-1-(3-Chloro-5-trifluoromethyl-pyridin-2-yl)-pyrrolidine-2-carboxylic acid (4-tert-butyl-thiazol-2-yl)-amide] | 1.95 | – |
| CC(C)(C)c1cc(NC(=O)[C@@H]2CCCN2c2ncc(C(F)(F)F)cc2Cl)no1 [(S)-1-(3-Chloro-5-trifluoromethyl-pyridin-2-yl)-pyrrolidine-2-carboxylic acid (5-tert-butyl-isoxazol-3-yl)-amide] | 0.08 | – |
| CC(C)(C)c1cc(NC(=O)[C@@H]2CCC(=O)N2c2cccc(Cl)c2)on1 [(S)-1-(3-Chloro-phenyl)-5-oxo-pyrrolidine-2-carboxylic acid (3-tert-butyl-isoxazol-5-yl)-amide] | 203 | – |
| CC(C)(C)c1cc(NC(=O)[C@@H]2CCC(=O)N2c2cccc(Cl)c2)no1 [(S)-1-(3-Chloro-phenyl)-5-oxo-pyrrolidine-2-carboxylic acid (5-tert-butyl-isoxazol-3-yl)-amide] | – | 296 |
| COc1ccc(N2C(=O)CC[C@H]2C(=O)Nc2cc(C(C)(C)C)no2)cc1F [(S)-1-(3-Fluoro-4-methoxy-phenyl)-5-oxo-pyrrolidine-2-carboxylic acid (3-tert-butyl-isoxazol-5-yl)-amide] | 314 | – |
